Data: patent US8697630B2, “Method for lowering insulin resistance” (Nestec S.A., priority 2005, dated 2014)

Assays:
Wild Type C57BL/6J mice = assay: Study 2/5: increasing 18:2 PUFA, insulin sensitivity; type: in vivo; settings: 18:2 at 2%, 4%, 6% en; WT mice
From the text: Studies 2 and 5 were combined (n=18) where we compared TYPE B Leptr (−/−) (Study2) with the Wild Type mouse (Study 5) used in the backcross for Leptr (−/−), i.e., C57BL/6J. Here, we also examined the effects of food restriction on TYPE B (which over eat like TYPE A because neither have leptin receptors) and added the design of increasing 18:2 PUFA (increments at 2%, 4%, 6% en) while assessing the insulin sensitivity response. […] They had lower glucose than TYPE A, better insulin testing, yet became obese and insulin resistant, glucose intolerant, etc. […] This was the second clue (after n 3 FA in Study 1) that the type and mass of fatty acid intake can have a big influence on mouse insulin dynamics.

3T3-L1 cells = settings: 240 nmol/L; cited from earlier work
alloxan diabetic rats = settings: after six weeks; extract 100 mg/kg; cited from earlier work
Zucker fa/fa rats = settings: 100 mg/kg for 3-weeks; vs control obese rats; cited from earlier work
glucose transporter = target: T1, glucose transporter (Homo sapiens, UniProt P11166); settings: cited from earlier work
T1 construct: various catechins tested on glucose transport from erythrocytes
T1 sequence (P11166 1-492): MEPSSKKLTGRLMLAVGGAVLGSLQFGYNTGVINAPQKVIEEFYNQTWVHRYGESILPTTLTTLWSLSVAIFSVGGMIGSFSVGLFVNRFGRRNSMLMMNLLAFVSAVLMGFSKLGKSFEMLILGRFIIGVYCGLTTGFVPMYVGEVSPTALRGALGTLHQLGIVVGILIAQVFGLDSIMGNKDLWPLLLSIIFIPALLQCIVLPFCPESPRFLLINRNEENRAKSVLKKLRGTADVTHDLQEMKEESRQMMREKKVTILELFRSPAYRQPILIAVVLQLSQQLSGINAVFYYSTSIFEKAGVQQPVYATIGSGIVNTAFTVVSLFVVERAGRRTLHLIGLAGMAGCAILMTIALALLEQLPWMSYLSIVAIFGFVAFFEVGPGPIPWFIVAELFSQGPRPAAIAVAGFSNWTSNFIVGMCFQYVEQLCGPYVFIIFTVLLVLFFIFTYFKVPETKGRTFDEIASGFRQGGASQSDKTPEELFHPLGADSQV

[1] = 1.5 mmole ingested, cited from earlier work
healthy subjects = settings: 50 g; cited from earlier work
diabetic subjects = settings: cited from earlier work; for plasma glucose peak level / time of plasma glucose peak: diabetic subjects; for change in insulin concentration: in vivo
adults = settings: estimated; cited from earlier work
ApoE (−/−) mice = assay: Study 14: plasma total cholesterol, retinol, tocopherol; type: in vivo; settings: 0.5 g/kg in 0.08% cholesterol diet vs same diet without statin; 14 weeks
From the text: The objective of this study was to investigate the effect of a statin (Mevacor) on cholesterol levels. Each of three groups of ApoE (−/−) mice was fed one of three diets, each diet containing a different cholesterol level (i.e., 0, 0.4, and 0.8 g/kg). A fourth group was fed the diet containing 0.8 g/kg of cholesterol with the further inclusion of 0.5 g/kg of a statin (i.e., Mevacor).

[2] = system: STZ-induced diabetic rats; settings: following intravenous insulin tolerance testing; cited from earlier work
Type 2 diabetics = settings: cited from earlier work
[3] = target: T2, protein tyrosine phosphatase-1B (Homo sapiens, UniProt P18031); settings: cited from earlier work
T2 sequence (P18031 1-435): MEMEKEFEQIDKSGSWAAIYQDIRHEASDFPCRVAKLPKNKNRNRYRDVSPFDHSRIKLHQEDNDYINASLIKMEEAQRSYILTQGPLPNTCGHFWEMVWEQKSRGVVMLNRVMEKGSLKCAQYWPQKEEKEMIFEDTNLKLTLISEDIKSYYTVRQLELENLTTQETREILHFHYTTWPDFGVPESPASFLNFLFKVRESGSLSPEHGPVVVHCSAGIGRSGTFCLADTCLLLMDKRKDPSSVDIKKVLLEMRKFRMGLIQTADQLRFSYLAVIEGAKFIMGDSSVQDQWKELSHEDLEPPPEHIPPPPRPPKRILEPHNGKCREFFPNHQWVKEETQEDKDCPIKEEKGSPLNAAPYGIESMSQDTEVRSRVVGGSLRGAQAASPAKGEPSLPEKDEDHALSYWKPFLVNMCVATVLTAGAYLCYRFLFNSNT

## CCCCC/C=C\C/C=C\CCCCCCCC(=O)O [18:2, linoleic acid]
Wild Type C57BL/6J mice
  sensitivity to insulin: appeared to increase sensitivity to insulin

## insulin: insulin
3T3-L1 cells
  greatest glucose uptake relative to maximum uptake observed with BE: 2.7 times
Alloxan diabetic rats
  decrease in fasting blood glucose: -183.1 mg/dL

## C[C@@H]([C@H](C)O)[C@H](N)C(=O)O [ID-1101, 4-hydroxyisoleucine]
Zucker fa/fa rats
  hyperinsulinemia: reduced hyperinsulinemia

## O=C(O[C@@H]1Cc2c(O)cc(O)cc2O[C@@H]1c1cc(O)c(O)c(O)c1)c1cc(O)c(O)c(O)c1 [EGCG, epigallocatechin gallate]
Glucose transporter
  increase of affinity for the glucose transporter over EGC: 2 to 4 orders of magnitude
[1]
  Peak maximum: 1.3 μmol. 1-1
  detection in the urine: not detected
[1]; ten healthy volunteers
  elimination T1/2: 3.9 h

## OC[C@H]1O[C@H](OC[C@H]2OC(O)(CO)[C@@H](O)[C@@H]2O)[C@H](O)[C@@H](O)[C@@H]1O (stereo partly shown) [isomaltulose]
Healthy subjects
  blood glucose peak: 110.9 ± 4.9 mg/dL
  time of blood glucose peak: 60 min
Diabetic subjects
  plasma glucose peak level: 195 ± 14 mg/dL
  time of plasma glucose peak: 120 min
  change in insulin concentration: 41.1 ± 7.4 µU/mL
adults
  minimum effect dose (mental concentration): more than 5 g

## OC[C@H]1O[C@@](CO)(O[C@H]2O[C@H](CO)[C@@H](O)[C@H](O)[C@H]2O)[C@@H](O)[C@@H]1O [sucrose]
Healthy subjects
  blood glucose peak: 143.3 ± 8.8 mg/dL
  time of blood glucose peak: 30 min
Diabetic subjects
  plasma glucose peak level: 237 ± 12 mg/dL
  time of plasma glucose peak: ≤ 60 min
  change in insulin concentration: 59.3 ± 12 µU/mL

## CC[C@H](C)C(=O)O[C@H]1C[C@@H](C)C=C2C=C[C@H](C)[C@H](CC[C@@H]3C[C@@H](O)CC(=O)O3)[C@H]21 [statin]
ApoE (−/−) mice
  liver, aortal, and plasma cholesterol levels: significant reduction

## O=C(O)CCCCC1CCSS1 (stereo not shown) [LA, Lipoic acid]
[2]
  reduction in the area under the glucose curve: 13%
Type 2 diabetics; 1200 mg LA (oral) for 4-wks
  reduction of lactate and pyruvate after oral glucose loading: 45%
Type 2 diabetics; 600, 1200 and 1800 mg/d oral
  improvement of insulin sensitivity: 17%
Type 2 diabetics; given as 3 doses of 600 mg
  oral dose reported to be safe: up to 1800 mg/d

## methylhydroxychalcone polymer [MHCP]
[3]
  inhibition of protein tyrosine phosphatase-1B: inhibits
